These results are taken from US9700522B2, “Transdermal patch and method for delivery of vitamin B12” (Vita Sciences LLC, priority 2007, dated 2017).

Series [1] has as its system skin. The series can be described thus: skin irritation on wear of patch with nicotinate enhancer. Conditions: benzylnicotinate substituted for methylnicotinate in the patch enhancer system. The class given is in vivo. An excerpt:
(§1) Permeation enhancers identified as useful for this product included nicotinates (methyl and benzyl), fatty acids (oleic acid, undecanioic acid, lauric acid), fatty alcohols (octanol and nonanol), terpenes (menthol, limonene, and menthone), and polyols (polyethylene glycol, propylene glycol, and glycerol). In an early trial, a binary enhancer system of methylnicotinate and propylene glycol was used but the inventor observed that the methylnicotinate crystallized after about 3-4 months in the patch.

The subject of series [2] is skin. The series can be described thus: permeation enhancement of vitamin B12 from the patch. Conditions: in conjunction with propylene glycol.
From the text: as §1

A short description of series [3]: early trial of patch with binary enhancer system: crystallization of enhancer in the patch on storage. The class given is physicochemical. The following applies: binary enhancer system of methylnicotinate and propylene glycol in vitamin B12 patch.
From the text: as §1

`O=C(OCc1ccccc1)c1cccnc1` [benzylnicotinate]: the skin irritation entry in series [1] was “severe and unacceptable skin irritation”. Consider `CC(C)[C@@H]1CC[C@@H](C)CC1=O` [menthone], for which, in series [2], the permeation enhancer performance entry is given as “excellent permeation enhancer”. With `COC(=O)c1cccnc1` [methylnicotinate], the “time after which the enhancer crystallized in the patch” value in series [3] is given as 3-4 months.
